Reference: patent US10111846B2, “S isomers of alpha-methyl-hydrocinnamic acid for the treatment of blood disorders” (priority 2009, dated 2018)
“Also recorded” adds a separate entry of the source.

Legend:
[1] = Oral administration to a normal human subject, plasma levels; type: in vivo
Description: (§1) FIGS. 8A-8B show […] and oral bioavailability of ST7. […] Target does equivalent to 20 mg/kg in an adult human.
(§2) Accordingly, ST7 is suitable for once/day dosing.

[2] = test system: WBC and neutrophil counts; experiment: WBC and absolute neutrophil counts (ANC) in baboons; type: in vivo, baboon
Description: FIG. 12 is a graph showing increase in both white blood cells (WBC) and Absolute neutrophil counts (ANC) after oral administration of 200 mg/kg ST7S on days 0-4 results in a 3-fold stimulation in WBC and neutrophil counts over 6 days.
In particular, oral administration of ST7 to a baboon results in a 3-fold stimulation of WBC count over 6 days (FIG. 2A).

[3] = test system: Chemotherapy-Induced Neutropenia Murine Model; experiment: Chemotherapy (5-FU)-induced neutropenia murine model; type: in vivo, mice
Description: Mice were treated with 5-FU on day 0, then received daily SC injection of saline or ST7 or G-CSF beginning on Day 1 and absolute neutrophil counts (ANC) were assessed on days 0, 9 and 13.
Additionally, administration of ST7 also enhances Myeloid Recovery in a Chemotherapy-Induced Neutropenia Murine Model. Mice were treated with 5-FU on day 0, then received daily SC injection of saline (control) or ST7 or G-CSF beginning on Day 1 and the absolute neutrophil counts (ANC) were assessed on days 0, 9 and 13.

[4] = test system: cultured normal human neutophils; experiment: Human neutrophil survival in vitro; type: cell-based; conditions: 200 μM, 50 μM
Source text: (§3) FIG. 7A is a histogram showing hemokines SCFADs induce anti-apoptotic proteins. FIG. 7B is a western blot of Mcl-1L to Mcl-1S protein expression (with β-actin as a protein loading control).

Mcl-1L to Mcl-1S = experiment: Western blot of Mcl-1L to Mcl-1S protein expression (anti-apoptotic proteins); type: cell-based; conditions: after exposure
Source text: as §3

[5] = test system: erythropoiesis and myelopoiesis; experiment: In vitro cell culture testing of stimulation of erythropoiesis and myelopoiesis; type: cell-based; conditions: for concentration giving stimulation of erythropoiesis and myelopoiesis: cell culture, data not shown
Source text: ST7S is shown to stimulate myelopoiesis and erythropoiesis in animal subjects. […] Thus, the employed concentration of S isomer is about 4-fold lower than that of racemate to achieve similar degrees of erythropoiesis and myelopoiesis.

erythropoiesis [6] = experiment: Oral ST7 in baboon with daily phlebotomy, chronic anemia; type: in vivo; conditions: oral 50 mg/kg per day, 5 days a week over 3 weeks
[7] = test system: human hematopoietic cultures; experiment: CFU-GM colony formation in human hematopoietic cultures; type: cell-based
platelet counts = experiment: Platelet counts in nonhuman primates; type: in vivo, baboon; conditions: IV to 3 baboons on days 1-3 and 7-9
Description: ST7 was administered via IV to baboons on days 1-3 and 7-9. ST7 works as similarly in all three baboons (Baboon numbers: GG24, FM45, FM83).
Administration of ST7 also increases platelet levels after administration to non-human primates.

[8] = PK profiles after oral and IV administration in baboons; type: in vivo
Description: as §1, §2

erythropoiesis [9] = experiment: ST7 once daily to mice for 5 days: erythropoiesis (hematocrit, hemoglobin); type: in vivo; conditions: once daily for 5 days, by day 14
[10] = test system: sub-lethally irradiated mouse model; experiment: Sub-lethally irradiated (6 Gy) mouse model, ANC; type: in vivo, mice; parameters: platelet level, level below which decrease was prevented at any timepoint / ANC, level below which decline was prevented at any time: unit not given here
Description: FIG. 9 is a graph of absolute neutrophil count (ANC) response to NaST7 (500 mg/kg IP and 300 mg/kg IP) after sub-lethal does of irradiation where mice were exposed to 6 Gy irradiation on day 0 and daily ST7 (enantiomer) was administered at two doses, beginning day 1.
(§4) In particular, absolute neutrophil count (ANC) increased after administration of NaST7 (500 mg/kg IP and 300 mg/kg IP) after sub-lethal does of irradiation (e.g., exposure to 6 Gy irradiation on day 0).

bone marrow = experiment: Lethally-irradiated murine model, bone marrow histology; type: in vivo, mice; conditions: LD90 irradiation day 0, daily SC from day 1, day 15
Description: Mice were irradiated at LD90 on day 0, and received daily SC injections of ST7-S or saline (control) starting Day 1. Bone marrow was examined on Day 15.
as §4

[11] = oral 200 mg/kg on days 0-4, over 6 days

Compound: CC(Cc1ccccc1)C(=O)O (racemic) [ST7, α-methyl-hydrocinnamic acid]
- drug levels relative to target dose ([1]; normal human subject, oral 1 or 1.4 grams): persist above the target dose for several hours
- stimulation of WBC count ([2]; baboon, oral, over 6 days): 3 fold
- recovery of ANC ([3]; 5-FU day 0, daily SC injection from day 1, day 13): accelerated recovery of ANC by day 13 as efficiently as G-CSF
- increase in NE (K/μL) as compared to saline control ([3]; day 13): 7-10 fold
- apoptosis of neutrophils [4]: suppresses apoptosis
- ratios of Mcl-1L to Mcl-1S (Mcl-1L to Mcl-1S): shifted towards anti-apoptotic actions
- concentration giving stimulation of erythropoiesis and myelopoiesis [5]: about 200 μM
- absolute increase in hematocrit level (erythropoiesis [6]): 7 percentage points
- increase in hematocrit level, % of baseline (erythropoiesis [6]): 28%
- increase in total hemoglobin level (erythropoiesis [6]): 2.5 g/dL
- CFU-GM colony formation [7]: increases CFU-GM Colony formation
- platelet count (platelet counts): stimulation of platelet count in all animals; also recorded: increased platelet counts
- bioavailability ([8]; baboon, in vivo, po, non-human primates, 113 mg/kg): > 90%
- PK profiles oral versus IV ([8]; non-human primates): nearly identical PK profiles
- hematocrit (erythropoiesis [9]): significant increase in hematocrit
- ANC, level below which decline was prevented at any time ([10]; 500 mg/kg IP and 300 mg/kg IP daily from day 1, 6 Gy on day 0): ≥ 200
- platelet level, level below which decrease was prevented at any timepoint ([10]; 500 mg/kg IP and 300 mg/kg IP daily from day 1, sub-lethal irradiation): ≥ 200

Compound: CC(Cc1ccccc1)C(=O)[O-].[Na+] (stereo not drawn) [ST7S, S-isomer of alpha-methyl-hydrocinnamic acid]
- time available after administration ([1]; about 1.4 g administered orally, FIG. 8B): at least 14 hours
- neutrophil counts (ANC), short-term administration ([2]; baboons, 100 mg/kg at day 0-2 and day 7-9): increases neutrophil counts
- neutrophil counts (ANC), long term ([2]; baboons, 47 days, administered at 1-5 days and 34-38 days): increases neutrophil counts; also recorded: Neutrophil counts increase
- stimulation in WBC [2, 11]: 3 fold
- stimulation in neutrophil counts [2, 11]: 3 fold
- fold lower concentration of S isomer than racemate for similar degrees of erythropoiesis and myelopoiesis [5]: about 4 fold
- concentration giving stimulation of erythropoiesis and myelopoiesis [5]: about 50 μM
- time available after administration ([8]; about 113 mg/kg administered orally, FIG. 8A): at least 4 hours
- bone marrow histology (bone marrow): stimulates bone marrow recovery; also recorded: normocellular marrows
